Patent US12281301B2, “Sequencing-based proteomics” (THE BROAD INSTITUTE, INC., priority 2018, dated 2025)

Tested on: THP-1 monocytes
Assay: PATTERNS protein quantification in tagged THP-1 monocyte library
Type: cell-based, human
Settings: 6 hours treatment; out of 400 proteins represented; including FOS and EGR1
Experimental: RNP-mediated gene tagging in other cell lines. Non-confluent cells were trypsinized and/or washed and adjusted to a density 2E7/ml in warm OptiMEM. 125 μl of cell suspension were mixed with 125 μl OptiMEM containing 2.5 μg donor DNA, 2.5 μg Cas9 protein, and 250 ng sgRNA. The mix was incubated for 15 minutes at room temperature, and transferred to a 4 mm electroporation cuvette (BioRad). Cells were electroporated on a Gene Pulser Xcell Electroporation System (BioRad) using the following settings: 265V, 975 μF, and 720 Ohm. Cells were recovered immediately in 5 ml of pre-warmed growth medium. For library generation in THP-1 and SKMEL28 cells, the above protocol was scaled up 10-fold.
FACS sorting. […]
Analysis of Silent Barcode Sequencing data. Silent barcode bases were extracted from raw sequencing reads and were converted to a 28-bit integer value. Using a barcode lookup table, reads were collapsed into target loci, and a matrix of screening conditions vs. sorted bins was incremented for every successfully mapped read. Total read counts in every position of the matrix were normalized by the ratio of sorted cells (from control sort for simplification) divided by total reads with correctly mapped 10 bp reverse primer sequence, which helped to even out PCR saturation artifacts. […] All data were analyzed using a custom JavaScript-based analysis tool that is available online.

CCCCCCCCCCCCCC(=O)O[C@@H]1[C@@H](C)[C@@]2(O)[C@@H](C=C(CO)C[C@]3(O)C(=O)C(C)=C[C@@H]23)[C@@H]2C(C)(C)[C@]12OC(C)=O [PMA, Phorbol 12-Myristate 13-Acetate]
proteins whose levels were altered, by PATTERNS: four proteins
